Reference: the NIST ThermoML archive (doi:10.1021/je800463k)

Assay: mn = molality of the nth substance listed, in mol/kg
Conditions: 101 kPa, Liquid; for electrical conductivity: Frequency=0.001 MHz, Alternating current cell with electrodes; for speed of sound: Frequency=2 MHz; for mass density: Pycnometric method

[Mg+2].[O-][Cl+3]([O-])([O-])[O-].[O-][Cl+3]([O-])([O-])[O-] [magnesium perchlorate] + CO
Conditions | electrical conductivity [S/m] | mass density [kg/m3] | speed of sound [m/s] | viscosity [mPa·s]
273.15 K, m1 = 0.0542 | 0.2699 | – | 1195.2 | 0.8742
273.15 K, m1 = 0.078 | 0.4031 | – | 1201.1 | –
273.15 K, m1 = 0.0925 | 0.4435 | – | 1203.6 | 0.9094
273.15 K, m1 = 0.1673 | 0.6702 | – | 1212.8 | 0.9874
273.15 K, m1 = 0.2872 | 0.9762 | – | 1226 | 1.13
273.15 K, m1 = 0.3228 | 1.058 | – | 1230.6 | 1.168
273.15 K, m1 = 0.4313 | 1.299 | – | 1245.5 | 1.329
273.15 K, m1 = 0.6444 | 1.752 | – | 1268.2 | 1.64
273.15 K, m1 = 1.059 | 2.122 | – | 1308.9 | 2.393
273.15 K, m1 = 1.395 | 2.273 | – | 1342.5 | 3.292
273.15 K, m1 = 1.717 | 2.343 | – | 1366.9 | 3.854
273.15 K, m1 = 2 | 2.355 | – | 1385.5 | 4.766
283.15 K, m1 = 0.0542 | 0.3054 | – | 1162.7 | 0.7345
283.15 K, m1 = 0.078 | 0.4563 | – | 1167.8 | –
283.15 K, m1 = 0.0925 | 0.5023 | – | 1170.8 | 0.768
283.15 K, m1 = 0.1673 | 0.7619 | – | 1178.9 | 0.8318
283.15 K, m1 = 0.2872 | 1.116 | – | 1193.9 | 0.9437
283.15 K, m1 = 0.3228 | 1.213 | – | 1197.5 | 0.9745
283.15 K, m1 = 0.4313 | 1.497 | – | 1213.2 | 1.102
283.15 K, m1 = 0.6444 | 2.001 | – | 1236.8 | 1.342
283.15 K, m1 = 1.059 | 2.513 | – | 1278.5 | 1.928
283.15 K, m1 = 1.395 | 2.731 | – | 1313.4 | 2.608
283.15 K, m1 = 1.717 | 2.848 | – | 1336.5 | 3.023
283.15 K, m1 = 2 | 2.892 | – | 1358.1 | 3.682
293.15 K, m1 = 0.0542 | 0.3414 | – | 1128.4 | 0.6286
293.15 K, m1 = 0.078 | 0.5074 | – | 1134.9 | –
293.15 K, m1 = 0.0925 | 0.5615 | – | 1137.7 | 0.6569
293.15 K, m1 = 0.1673 | 0.854 | – | 1146 | 0.7098
293.15 K, m1 = 0.2872 | 1.253 | – | 1161.8 | 0.7995
293.15 K, m1 = 0.3228 | 1.37 | – | 1165.4 | 0.8248
293.15 K, m1 = 0.4313 | 1.702 | – | 1181.4 | 0.9286
293.15 K, m1 = 0.6444 | 2.209 | – | 1205.9 | 1.112
293.15 K, m1 = 1.059 | 2.926 | – | 1247.5 | 1.585
293.15 K, m1 = 1.395 | 3.221 | – | 1282.1 | 2.11
293.15 K, m1 = 1.717 | 3.39 | – | 1307.5 | 2.43
293.15 K, m1 = 2 | 3.474 | – | 1329.1 | 2.923
294 K, m1 = 0.078 | – | 802.89 | – | –
295.3 K, m1 = 0.0925 | – | 802.82 | – | –
296.85 K, m1 = 0.3228 | – | 829.87 | – | –
296.9 K, m1 = 0.2872 | – | 825.72 | – | –
297.7 K, m1 = 0.078 | – | 799.44 | – | –
298 K, m1 = 0.0925 | – | 800.22 | – | –
298.15 K, m1 = 0.0542 | 0.3599 | – | 1111.3 | 0.5841
298.15 K, m1 = 0.078 | 0.5344 | – | 1119.1 | –
298.15 K, m1 = 0.0925 | 0.5917 | – | 1121.2 | 0.6098
298.15 K, m1 = 0.1673 | 0.9009 | – | 1129.8 | 0.656
298.15 K, m1 = 0.2872 | 1.332 | – | 1145.7 | 0.7391
298.15 K, m1 = 0.3228 | 1.452 | – | 1149.1 | 0.7618
298.15 K, m1 = 0.4313 | 1.807 | – | 1165.2 | 0.856
298.15 K, m1 = 0.6444 | 2.389 | – | 1189.2 | 1.019
298.15 K, m1 = 1.059 | 3.143 | – | 1232 | 1.446
298.15 K, m1 = 1.395 | 3.48 | – | 1267.7 | 1.91
298.15 K, m1 = 1.717 | 3.683 | – | 1293.2 | 2.196
298.15 K, m1 = 2 | 3.779 | – | 1314.4 | 2.624
298.3 K, m1 = 0.1673 | – | 809.54 | – | –
299.45 K, m1 = 0.078 | – | 797.76 | – | –
299.75 K, m1 = 0.3228 | – | 827.21 | – | –
299.8 K, m1 = 0.0925 | – | 798.59 | – | –
299.8 K, m1 = 0.2872 | – | 823.08 | – | –
301.15 K, m1 = 0.078 | – | 796.1 | – | –
301.15 K, m1 = 0.1673 | – | 806.95 | – | –
